Patent US9309239B2, “Substituted 6-fluoro-1H-pyrazolo[4,3-b]pyridines and use thereof” (BAYER INTELLECTUAL PROPERTY GMBH, priority 2010, dated 2016)

What was measured:
rabbit aorta rings = test: Vasorelaxant action in vitro (phenylephrine-contracted rabbit aorta rings); details: Oryctolagus cuniculus; concentration reducing phenylephrine-induced contraction of rabbit aorta rings by 50%
Procedure: B-1. Vasorelaxant Action In Vitro
Rabbits are stunned by a blow to the neck and exsanguinated. The aorta is removed, freed from adhering tissue and divided into rings of a width of 1.5 mm. The rings are placed individually under an initial tension in 5 ml organ baths with Krebs-Henseleit solution which is at 37° C., is gassed with carbogen and has the following composition (in each case mM): sodium chloride 119; potassium chloride: 4.8; calcium chloride dihydrate: 1; magnesium sulfate heptahydrate: 1.4; potassium dihydrogenphosphate: 1.2; sodium bicarbonate: 25; glucose: 10. The contractile force is determined with Statham UC2 cells, amplified and digitalized using A/D transducers (DAS 1802 HC, Keithley Instruments Munich), and recorded in parallel on linear recorders. To obtain a contraction, phenylephrine is added to the bath cumulatively in increasing concentration. After several control cycles, the substance to be investigated is added in each further run in increasing dosage in each case, and the height of the contraction achieved is compared with the height of the contraction reached in the last preceding run. This is used to calculate the concentration needed to reduce the magnitude of the control value by 50% (IC50 value). The standard administration volume is 5 μl; the DMSO content in the bath solution corresponds to 0.1%.

[1] = tested on: recombinant guanylate cyclase reporter cell line; test: Effect on a recombinant guanylate cyclase reporter cell line; type: cell-based; details: MEC=minimum effective concentration
Procedure: B-2. Effect on a Recombinant Guanylate Cyclase Reporter Cell Line
The cellular activity of the compounds according to the invention is determined using a recombinant guanylate cyclase reporter cell line, as described in F. Wunder et al., Anal. Biochem. 339, 104-112 (2005).

[2] = Pharmacokinetic parameters following intravenous administration in rats; type: in vivo, male Wistar rats; details: intravenous administration of 0.3 mg/kg
Procedure: B-4. Determination of Pharmacokinetic Parameters Following Intravenous and Oral Administration:
The pharmacokinetic parameters of the substance are determined in male CD-1 mice, male Wistar rats and female beagles. The administration volume is 1 ml/kg for mice, 5 ml/kg for rats and 0.5 ml/kg for dogs. Intravenous administration is via a formulation of species-specific plasma/DMSO (99/1) in the case of mice and rats and via water/PEG400/ethanol (50/40/10) in the case of dogs. The taking of blood from rats is simplified by inserting a silicone catheter into the right Vena jugularis externa prior to substance administration. The surgical intervention takes place one day prior to the experiment with isofluran anesthesia and administration of an analgetic (carprofen 5 mg/kg s.c.). Substance administration is as i.v. bolus in the case of mice and via a 15-minute infusion in the case of rats and dogs. Removal of blood is after 0, 0.033, 0.083, 0.17, 0.5, 1, 2, 3, 4, 6, 7 and 24 hours in the case of mice and after 0, 0.083, 0.25, 0.28, 0.33, 0.42, 0.75, 1, 2, 3, 4, 6, 7 and 24 hours in the case of dogs and rats. […]
An internal standard (ZK 228859) is added to the unknown samples, calibration samples and QCs, and the protein is precipitated using excess acetonitrile. […] The substances are quantified by peak heights or areas using extracted ion chromatograms of specific MRM experiments.
The plasma concentration/time plots determined are used to calculate the pharmacokinetic parameters such as AUC, Cmax, t1/2 (half life) and CL (clearance) employing the validated pharmacokinetic calculation program KinEx (Vers. 2.5 and 3).
Since the substance quantification is performed in plasma, it is necessary to determine the blood/plasma distribution of the substance in order to be able to adjust the pharmacokinetic parameters correspondingly. […] After centrifugation at 1000 g, the plasma concentration is measured (see above) and determined by calculating the quotient of the cb/cp values.
Following intravenous administration of 0.3 mg/kg of example 1 in rats, the following values were recorded: […]

Row | Compound | IC50 (rabbit aorta rings) | AUCnorm [2] | clearance ([2]; male, Wistar, rat, blood, read-out: CL blood (converted)) | half-life ([2]; male, Wistar, rat, plasma) | MEC [1]
1 | COC(=O)Nc1c(N)nc(-n2nc(Cc3ccccc3F)c3ncc(F)cc32)nc1N [Example 1, Methyl {4,6-diamino-2-[6-fluoro-3-(2-fluorobenzyl)-1H-pyrazolo[4,3-b]pyridin-1-yl]pyrimidin-5-yl}carbamate] | 1380 nM | 4.62 kg·h/L | 5.5 mL/min/kg | 1.38 h | 0.3 µM
2 | CCOC(=O)Nc1c(N)nc(-n2nc(Cc3ccccc3F)c3ncc(F)cc32)nc1N [Example 2, Ethyl {4,6-diamino-2-[6-fluoro-3-(2-fluorobenzyl)-1H-pyrazolo[4,3-b]pyridin-1-yl]pyrimidin-5-yl}carbamate] | 763 nM |  |  |  | 0.3 µM
3 | COC(=O)N(C)c1c(N)nc(-n2nc(Cc3ccccc3F)c3ncc(F)cc32)nc1N [Example 7, Methyl {4,6-diamino-2-[6-fluoro-3-(2-fluorobenzyl)-1H-pyrazolo[4,3-b]pyridin-1-yl]pyrimidin-5-yl}methylcarbamate] | 194 nM |  |  |  | 0.1 µM

More lines, in order of falling IC50 (rabbit aorta rings), values ahead:

Row | IC50 (rabbit aorta rings) | AUCnorm [2] | clearance ([2]; male, Wistar, rat, blood, read-out: CL blood (converted)) | half-life ([2]; male, Wistar, rat, plasma) | Compound | MEC [1]
4 | 286 nM |  |  |  | CCOC(=O)N(C)c1c(N)nc(-n2nc(Cc3ccccc3F)c3ncc(F)cc32)nc1N [Example 8, Ethyl {4,6-diamino-2-[6-fluoro-3-(2-fluorobenzyl)-1H-pyrazolo[4,3-b]pyridin-1-yl]pyrimidin-5-yl}methylcarbamate] | 0.1 µM
5 | 178 nM |  |  |  | COC(=O)N(CC(F)(F)F)c1c(N)nc(-n2nc(Cc3ccccc3F)c3ncc(F)cc32)nc1N [Example 13, Methyl {4,6-diamino-2-[6-fluoro-3-(2-fluorobenzyl)-1H-pyrazolo[4,3-b]pyridin-1-yl]pyrimidin-5-yl}(2,2,2-trifluoroethyl)carbamate] | 0.1 µM
